What was measured:
primary B-ALL cells = assay: Phosphorylated Akt and Erk1/2 in primary B-ALL cells (Western blot); assay type: cell-based, human; details: 72 h
Protocol: Figure 6 X-370-sensitive human primary B-ALL cells contained PI3K-dependent Erk1/2 phosphorylation and combination of AZD6244 and X-370 enhanced inhibitory activity against resistant specimens (A) X-370-sensitive human primary B-ALL cells contained PI3K-dependent Erk1/2 phosphorylation. Primary B-ALL cells were treated with series diluted X-370 for 72 h. Phosphorylation of Akt and Erk1/2 were detected. (B). Combination of AZD6244 and X-370 enhanced inhibitory activity against resistant specimens. X-370 resistant primary B-ALL cells were treated with 1 μM X-370 alone or cocurently with MEK1/2 inhibitor AZD6244 (1 μM) for 72 h and cell viability were tested by CCK-8 assay. Cell viability of each treated group was compared with unpaired t-tests. *: P < 0.05. (C) X-370-resistant primary B-ALL cells were treated with X-370 in the presence of 1 μM AZD6244 or not for 72 h and phosphorylated Akt and Erk1/2 were then detected by Western blot.
Bone marrow was obtained from patients after provision of informed consent using guidelines approved by the Committee on the Use of Human Subjects in Research at Shanghai Jiaotong University or Shanghai Fudan University under a protocol approved by the Review Board. […] Cell viability and phosphorylated Akt and Erk1/2 were then detected.

Raji cells = assay: Cell cycle distribution (PI staining, FACS); assay type: cell-based, human; details: 24 h
Description: Figure 3 PI3Kδ inhibition led to blockade of B cell leukemia cells proliferation via induction of cell cycle arrest and apoptosis Raji cells treated with X-370 for indicated times and at serial diluted concentrations were subjected to Annexin V-FITC/PI staining (A) and PI staining (B) and FACS analysis to show cell apoptosis and cell cycle distribution respectively. (C) X-370 inhibited proliferation of human leukemia primary cells. Freshly isolated human primary mononuclear cells from bone marrow samples of patients were treated with X-370 for 72 h and cell viability was assayed using CCK-8 assay. IC50s of each sample were plotted where 10 μM was assigned to specimens with IC50 >10 μM. Each symbol represents an individual patient sample. […]

## O=C(N1CCCC1)N1CCC(n2cnc3c(-n4c(C(F)F)nc5ccccc54)nc(N4CCOCC4)nc32)CC1 [X-370]
Primary B-ALL cells; resistant (IC50>1 μM) samples
  phosphorylated Erk1/2: remained unaffected
Primary B-ALL cells; sensitive (IC50<1 μM) specimens, < 1 μM
  phosphorylated Akt and Erk1/2: dramatically decreased
Raji cells
  cell cycle distribution: increase in cell population in G1 phase
